# Results published in ChEMBL document CHEMBL1649321, “Plasmid-mediated resistance to cephalosporins in Salmonella enterica serovar Typhi” (2010).
# What was measured:
# Salmonella typhi [1] = assay: Antimicrobial activity against Salmonella enterica serovar Typhi isolate 080048Ty transconjugant harboring bla CTX-M-15 gene by broth microdilution method; type: functional, Salmonella enterica subsp. enterica serovar Typhi
# Salmonella typhi [2] = assay: Antimicrobial activity against Salmonella enterica serovar Typhi isolate 080049Ty by broth microdilution method; type: functional, Salmonella enterica subsp. enterica serovar Typhi
# Escherichia coli [3] = assay: Antimicrobial activity against Escherichia coli W3110 transformant harboring bla CTX-M-15 gene by broth microdilution method; type: functional
# Salmonella typhi [4] = assay: Antimicrobial activity against Salmonella enterica serovar Typhi isolate 080048Ty by broth microdilution method; type: functional, Salmonella enterica subsp. enterica serovar Typhi
# Salmonella typhi [5] = assay: Antimicrobial activity against Salmonella enterica serovar Typhi isolate 080048Ty by broth microdilution method in presence of beta-lactamase inhibitor clavulanic acid; type: functional, Salmonella enterica subsp. enterica serovar Typhi
# Escherichia coli [6] = assay: Antimicrobial activity against Escherichia coli W3110 transformant harboring bla CTX-M-15 gene by broth microdilution method in presence of beta-lactamase inhibitor clavulanic acid; type: functional
# Salmonella typhi [7] = assay: Antimicrobial activity against Salmonella enterica serovar Typhi isolate 080048Ty transconjugant harboring bla CTX-M-15 gene by broth microdilution method in presence of beta-lactamase inhibitor clavulanic acid; type: functional, Salmonella enterica subsp. enterica serovar Typhi
# Salmonella typhi [8] = assay: Antimicrobial activity against Salmonella enterica serovar Typhi isolate 080049Ty by broth microdilution method in presence of beta-lactamase inhibitor clavulanic acid; type: functional, Salmonella enterica subsp. enterica serovar Typhi
SMILES,MIC (Salmonella typhi [1]),MIC (Salmonella typhi [2]),MIC (Escherichia coli [3]),MIC (Salmonella typhi [4]),MIC (Salmonella typhi [5]),MIC (Escherichia coli [6]),MIC (Salmonella typhi [7]),MIC (Salmonella typhi [8])
CC1(C)S[C@@H]2[C@H](NC(=O)[C@H](N)c3ccccc3)C(=O)N2[C@H]1C(=O)O [AMPICILLIN],> 64 µg/mL,> 64 µg/mL,> 64 µg/mL,< 2 µg/mL,,,,
CO/N=C(\C(=O)N[C@@H]1C(=O)N2C(C(=O)O)=C(COC(C)=O)CS[C@H]12)c1csc(N)n1 [CEFOTAXIME],> 128 µg/mL,> 128 µg/mL,> 128 µg/mL,0.125 µg/mL,< 0.125 µg/mL,< 0.125 µg/mL,< 0.125 µg/mL,< 0.125 µg/mL
CC(C)(O/N=C(\C(=O)N[C@@H]1C(=O)N2C(C(=O)[O-])=C(C[n+]3ccccc3)CS[C@H]12)c1csc(N)n1)C(=O)O [CEFTAZIDIME],64 µg/mL,64 µg/mL,64 µg/mL,1 µg/mL,0.25 µg/mL,0.25 µg/mL,0.25 µg/mL,0.25 µg/mL
CO/N=C(\C(=O)N[C@@H]1C(=O)N2C(C(=O)O)=C(CSc3nc(=O)c(O)nn3C)CS[C@H]12)c1csc(N)n1 [CEFTRIAXONE],> 128 µg/mL,> 128 µg/mL,> 128 µg/mL,0.125 µg/mL,,,,
CCn1cc(C(=O)O)c(=O)c2ccc(C)nc21 [NALIDIXIC ACID],> 64 µg/mL,> 64 µg/mL,32 µg/mL,> 64 µg/mL,,,,
